From patent US20230017532A1 (Hoffmann-La Roche Inc., priority 2018, published 2023)
Where a name gives a salt, the structure may show the parent alone.

Tested on: Acinetobacter baumannii ATCC17978
Experiment: Antimicrobial susceptibility testing: 90% growth inhibitory concentration (IC90) determination, Iso-Sensitest broth, OD 600 nm
Assay type: cell-based
Settings: 90% growth inhibitory concentration, Acinetobacter baumannii ATCC17978, Iso-Sensitest broth, OD 600 nm over 16 h; read-out: ATCC 17978 IC90
Summary of the method: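 Twofold serial dilutions (e.g. 50–0.097 μM final) incubated with ~5×10^5 CFU/ml in Iso-Sensitest broth at 35±2 °C. OD600 read every 20 min for 16 h; IC90 derived from growth inhibition during logarithmic phase.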

Q: How did the IC90 turn out when `CCc1cc(Nc2nccn3c(-c4ccc(OC)c(F)c4F)cnc23)ccc1C(=O)NCCNCCN` [Example 64, N-(2-((2-Aminoethyl)amino)ethyl)-4-((3-(2,3-difluoro-4-methoxyphenyl)imidazo[1,2-a]pyrazin-8-yl)amino)-2-ethylbenzamide] was run?
A: The IC90 was 110 nM.

Q: For `COc1ccc(-c2cnc3c(Nc4ccc(C(=O)NCCOCCN)c(C)c4)nccn23)cc1` [Example 77], which IC90 is on record?
A: Its IC90 is 230 nM.

Same assay, conditions: Acinetobacter baumannii, ATCC17978, 16 h, 90% growth inhibitory concentration, Acinetobacter baumannii ATCC17978, Iso-Sensitest broth, OD 600 nm over 16 h; read-out: ATCC 17978 IC90

Q: How did the IC90 turn out when `Cc1cc(Nc2nccn3c(-c4ccc(OC(F)F)cc4)cnc23)ccc1C(=O)NCCOCCN1C(=O)COC1=O` [Example 12, 4-((3-(4-(difluoromethoxy)phenyl)imidazo[1,2-a]pyrazin-8-yl)amino)-N-(2-(2-(2,4-dioxooxazolidin-3-yl)ethoxy)ethyl)-2-methylbenzamide] was run?
A: Its IC90 is 750 nM.

Q: `CCc1cc(Nc2nccn3c(-c4ccc(OC)c(F)c4F)cnc23)ccc1C(=O)NCCOCCN(C)CC(=O)O` [Example 52, N-(2-(2-(4-((3-(2,3-difluoro-4-methoxyphenyl)imidazo[1,2-a]pyrazin-8-yl)amino)-2-ethylbenzamido)ethoxy)ethyl)-N-methylglycine hydrochloride] was tested. Which IC90 did it give?
A: Its IC90 is 320 nM.

Q: How did the IC90 turn out when `Cc1cc(Nc2nccn3c(-c4ccc(OC(F)F)cc4)cnc23)ccc1C(=O)NCCOCCOCCO` [Example 149, 4-[[3-[4-(difluoro-methoxy)phenyl]imidazo [1,2-a]pyrazin-8-yl]amino]-N-[2-[2-(2-hydroxyethoxy)ethoxy]ethyl]-2-methylbenzamide] was run?
A: Its IC90 is 1300 nM.

Q: With `Cc1cc(Nc2nccn3c(-c4ccc(OC(F)F)cc4)cnc23)ccc1C(=O)N(C)CCOCCN` [Example 136, N-[2-(2-aminoethoxy)ethyl]-4-[[3-[4-(difluoro-methoxy)phenyl]imidazo [1,2-a]pyrazin-8-yl]amino]-N,2-dimethyl-benzamide; hydrochloride] as the compound, how does the IC90 read?
A: Its IC90 is 860 nM.

Q: With `Cc1cc(Nc2nccn3c(-c4ccc(OC(F)F)cc4)cnc23)ccc1C(=O)NCCOCCNS(C)(=O)=O` [Example 102, 4-[[3-[4-(difluoromethoxy)phenyl]imidazo [1,2-a]pyrazin-8-yl]amino]-N-[2-[2-(methane-sulfonamido)ethoxy]ethyl]-2-methylbenzamide] as the compound, how does the IC90 read?
A: The IC90 was 460 nM.

Q: For `Cc1cc(Nc2nccn3c(-c4ccc(OC(F)F)cc4)cnc23)ccc1C(=O)NCCOCCN1CCC2(COC2)C1` [Example 83, 4-[[3-[4-(difluoromethoxy)phenyl]imidazo [1,2-a]pyrazin-8-yl]amino]-2-methyl-N-[2-[2-(2-oxa-7-azaspiro [3.4]octan-7-yl)ethoxy]ethyl]benzamide], which IC90 is on record?
A: Its IC90 is 640 nM.

Q: For `CCN(C(=O)NCCCN(C)C)C(=O)c1ccc(Nc2nccn3c(-c4ccc(OCC#N)c(F)c4F)cnc23)cc1Cl` [Example 27, 2-chloro-4-[[3-[4-(cyanomethoxy)-2,3-difluoro-phenyl]imidazo[1,2-a]pyrazin-8-yl]amino]-N-[3-(dimethylamino)propylcarbamoyl]-N-ethyl-benzamide], which IC90 is on record?
A: The IC90 was 560 nM.

Q: `COc1ccc(-c2cnc3c(Nc4ccc(C(=O)NCCOCCN5CCNCC5)c(Cl)c4)nccn23)c(F)c1F` [Example 1, 2-chloro-4-[[3-(2,3-difluoro-4-methoxyphenyl)imidazo[1,2-a]pyrazin-8-yl]amino]-N-[2-(2-piperazin-1-ylethoxy)ethyl]benzamide;2,2,2-trifluoroacetic acid] was tested. Which IC90 did it give?
A: The IC90 was 120 nM.

Q: `CCc1cc(Nc2nccn3c(-c4ccc(OC)c(F)c4F)cnc23)ccc1C(=O)NCCCNCCCN` [Example 184, N-[3-(3-aminopropyl-amino)propyl]-4-[[3-(2,3-difluoro-4-methoxyphenyl)imidazo[1,2-a]pyrazin-8-yl]amino]-2-ethyl-benzamide;2,2,2-trifluoroacetic acid] was tested. Which IC90 did it give?
A: The IC90 was 590 nM.

Q: With `COc1ccc(-c2cnc3c(Nc4ccc(C(=O)NCCOCC(=O)N5CCOC(CN)C5)c(C)c4)nccn23)cc1F` (stereo not shown) [Example 135, N-[2-[2-[2-(aminomethyl)morpholin-4-yl]-2-oxoethoxy]ethyl]-4-[[3-(3-fluoro-4-methoxyphenyl)imidazo[1,2-a]pyrazin-8-yl]amino]-2-methylbenzamide; hydrochloride] as the compound, how does the IC90 read?
A: The IC90 was 820 nM.

Q: `COc1ccc(-c2cnc3c(Nc4ccc5c(c4)CCN(CCOCCN)C5=O)nccn23)c(F)c1F` [Example 171, 2-[2-(2-aminoethoxy)ethyl]-6-[[3-(2,3-difluoro-4-methoxyphenyl)imidazo[1,2-a]pyrazin-8-yl]amino]-3,4-dihydroiso-quinolin-1-one;2,2,2-trifluoroacetic acid] was tested. Which IC90 did it give?
A: The IC90 was 290 nM.

Q: `Cc1cc(Nc2nccn3c(-c4ccc(Cl)c(F)c4F)cnc23)ccc1C(=O)NCCNCCN` [Example 122, N-[2-(2-aminoethylamino)ethyl]-4-[[3-(4-chloro-2,3-difluorophenyl)imidazo[1,2-a]pyrazin-8-yl]amino]-2-methylbenzamide; hydrochloride] was tested. Which IC90 did it give?
A: The IC90 was 620 nM.

Q: `C#CCOc1ccc(-c2cnc3c(Nc4ccc(C(=O)NCCCNCCO)c(CC)c4)nccn23)c(F)c1F` [Example 73, 4-[[3-(2,3-difluoro-4-prop-2-ynoxy-phenyl)imidazo[1,2-a]pyrazin-8-yl]amino]-2-ethyl-N-[3-(2-hydroxyethylamino)propyl]benzamide] was tested. Which IC90 did it give?
A: The IC90 was 170 nM.

Q: How did the IC90 turn out when `CCc1cc(Nc2nccn3c(-c4ccc(OC)c(F)c4F)cnc23)ccc1C(=O)NCCCNCC[C@H](N)C(=O)O` [Example 183, (2S)-2-amino-4-[3-[[4-[[3-(2,3-difluoro-4-methoxyphenyl)imidazo[1,2-a]pyrazin-8-yl]amino]-2-ethyl-benzoyl]amino]propylamino] butanoic acid; formic acid] was run?
A: Its IC90 is 660 nM.

Q: How did the IC90 turn out when `COc1ccc(-c2cnc3c(Nc4ccc(C(=O)NCCCNCC[C@H](N)C(=O)O)c(C)c4)nccn23)c(F)c1F` [Example 187, (2S)-2-amino-4-[3-[[4-[[3-(2,3-difluoro-4-methoxyphenyl)imidazo[1,2-a]pyrazin-8-yl]amino]-2-methyl-benzoyl]amino]propylamino] butanoic acid] was run?
A: Its IC90 is 1100 nM.

Q: Which IC90 does the source give for `Cc1cc(Nc2nccn3c(-c4ccc(OC(F)F)cc4)cnc23)ccc1C(=O)NCCOCCN1CC2(COC2)C1` [Example 114, 4-[[3-[4-(difluoromethoxy)phenyl]imidazo [1,2-a]pyrazin-8-yl]amino]-2-methyl-N-[2-[2-(2-oxa-6-azaspiro [3.3]heptan-6-yl)ethoxy]ethyl] benzamide] here?
A: Its IC90 is 580 nM.

Q: Which IC90 does the source give for `Cc1cc(Nc2nccn3c(-c4ccc(OC(F)F)cc4)cnc23)ccc1C(=O)NCCOCCNC(=O)CN1CCNCC1` [Example 153, 4-[[3-[4-(difluoro-methoxy)phenyl]imidazo [1,2-a]pyrazin-8-yl]amino]-2-methyl-N-[2-[2-[(2-piperazin-1-ylacetyl)amino)ethoxy]ethyl] benzamide; hydrochloride] here?
A: The IC90 was 2000 nM.

Q: How did the IC90 turn out when `COc1ccc(-c2cnc3c(Nc4ccc(C(=O)NCCOCCNCC(F)F)c(C)c4)nccn23)cc1` [Example 41, N-(2-(2-((2,2-difluoroethyl)amino)ethoxy)ethyl)-4-((3-(4-methoxyphenyl)imidazo[1,2-a]pyrazin-8-yl)amino)-2-methylbenzamide] was run?
A: The IC90 was 450 nM.

Q: For `COc1ccc(-c2cnc3c(Nc4ccc(C(=O)NCCOCCn5ccnn5)c(C)c4)nccn23)cc1` [Example 107, 4-[[3-(4-methoxyphenyl)imidazo[1,2-a]pyrazin-8-yl]amino]-2-methyl-N-[2-[2-(triazol-1-yl)ethoxy]ethyl] benzamide], which IC90 is on record?
A: The IC90 was 500 nM.

Q: How did the IC90 turn out when `Cc1cc(Nc2nccn3c(-c4ccc(OC(F)F)cc4)cnc23)ccc1C(=O)NCCS(=O)(=O)CCN` [Example 46, N-(2-((2-Aminoethyl)sulfonyl)ethyl)-4-((3-(4-(difluoromethoxy)phenyl)imidazo[1,2-a]pyrazin-8-yl)amino)-2-methylbenzamide] was run?
A: Its IC90 is 530 nM.

Q: `CCc1cc(Nc2nccn3c(-c4ccc(OC(F)F)c(F)c4F)cnc23)ccc1C(=O)NCCNCCO` [Example 174, 4-[[3-[4-(difluoromethoxy)-2,3-difluorophenyl]imidazo[1,2-a]pyrazin-8-yl]amino]-2-ethyl-N-[2-(2-hydroxy-ethylamino)ethyl]benzamide; hydrochloride] was tested. Which IC90 did it give?
A: The IC90 was 590 nM.

Q: `Cc1cc(Nc2nccn3c(-c4ccc(OC(F)F)cc4)cnc23)ccc1C(=O)NCCOCCOCCOCCN=[N+]=[N-]` [Example 139, N-[2-[2-[2-(2-azidoethoxy)ethoxy]ethoxy]ethyl]-4-[[3-[4-(difluoro-methoxy)phenyl]imidazo [1,2-a]pyrazin-8-yl]amino]-2-methylbenzamide] was tested. Which IC90 did it give?
A: Its IC90 is 1000 nM.

Q: With `COc1ccc(-c2cnc3c(Nc4ccc(C(=O)NCCOCCN5CCOC(CN)C5)c(C)c4)nccn23)cc1F` (stereo not shown) [Example 111, N-[2-[2-[2-(aminomethyl)morpholin-4-yl]ethoxy]ethyl]-4-[[3-(3-fluoro-4-methoxyphenyl)imidazo[1,2-a]pyrazin-8-yl]amino]-2-methylbenzamide; hydrochloride] as the compound, how does the IC90 read?
A: The IC90 was 560 nM.

Q: `COc1ccc(-c2cnc3c(Nc4ccc(C(=O)NCCOCCN)c(Cl)c4)nccn23)c(F)c1F` [Example 18, N-(2-(2-aminoethoxy)ethyl)-2-chloro-4-((3-(2,3-difluoro-4-methoxyphenyl)imidazo[1,2-a]pyrazin-8-yl)amino)benzamide] was tested. Which IC90 did it give?
A: Its IC90 is 57 nM.

Same assay, conditions: Acinetobacter baumannii, ATCC17978, 16 h, read-out: ATCC 17978 IC90

Q: Which IC90 does the source give for `COc1ccc(-c2cnc3c(Nc4ccc(C(=O)N(C)CCOCCN)c(C)c4)nccn23)cc1` [Example 24, N-(2-(2-aminoethoxy)ethyl)-4-((3-(4-methoxyphenyl)imidazo[1,2-a]pyrazin-8-yl)amino)-N,2-dimethylbenzamide hydrochloride] here?
A: Its IC90 is 430 nM.

Q: Which IC90 does the source give for `COc1ccc(-c2cnc3c(Nc4ccc(C(=O)NCCOCCN)c(CC(F)F)c4)nccn23)c(F)c1F` [Example 75, N-[2-(2-aminoethoxy)ethyl]-2-(2,2-difluoroethyl)-4-[[3-(2,3-difluoro-4-methoxy-phenyl)imidazo[1,2-a]pyrazin-8-yl]amino]benzamide; formic acid] here?
A: The IC90 was 160 nM.
